Test results as given in ChEMBL document CHEMBL4118098, “Discovery of DS28120313 as a potent orally active hepcidin production inhibitor: Design and optimization of novel 4,6-disubstituted indazole derivatives” (Bioorg Med Chem Lett, 2017).

Tests used:
[1] = target: RAC-gamma serine/threonine-protein kinase (Homo sapiens) (UniProt Q9Y243); assay: Inhibition of AKT3 (unknown origin) at 0.164 uM relative to control
[2] = target: Homeodomain-interacting protein kinase 2 (Homo sapiens) (UniProt Q9H2X6); assay: Inhibition of HIPK2 (unknown origin) at 0.164 uM relative to control
[3] = target: Tyrosine-protein kinase Fer (Homo sapiens) (UniProt P16591); assay: Inhibition of Fer (unknown origin) at 0.164 uM relative to control
[4] = target: Protein kinase C gamma type (Homo sapiens) (UniProt P05129); assay: Inhibition of PKC-gamma (unknown origin) at 0.164 uM relative to control
[5] = target: Misshapen-like kinase 1 (Homo sapiens) (UniProt Q8N4C8); assay: Inhibition of MINK (unknown origin) at 0.164 uM relative to control
[6] = target: Proto-oncogene tyrosine-protein kinase ROS (Homo sapiens) (UniProt P08922); assay: Inhibition of ROS (unknown origin) at 0.164 uM relative to control
[7] = system: Tyrosine-protein kinase ABL1 (Homo sapiens), P00519 [Q252H]; assay: Inhibition of Abl Q252H mutant (unknown origin) at 0.164 uM relative to control
[8] = target: Tyrosine-protein kinase ABL2 (Homo sapiens) (UniProt P42684); assay: Inhibition of Arg (unknown origin) at 0.164 uM relative to control
[9] = target: NUAK family SNF1-like kinase 1 (Homo sapiens) (UniProt O60285); assay: Inhibition of NuaK1 (unknown origin) at 0.164 uM relative to control
[10] = target: Tyrosine-protein kinase Blk (Homo sapiens) (UniProt P51451); assay: Inhibition of BLK (unknown origin) at 0.164 uM relative to control
[11] = target: Dual specificity tyrosine-phosphorylation-regulated kinase 1A (Homo sapiens) (UniProt Q13627); assay: Inhibition of DYRK1a (unknown origin) at 0.164 uM relative to control
[12] = target: Calcium/calmodulin-dependent protein kinase type 1 (Homo sapiens) (UniProt Q14012); assay: Inhibition of CaMK1a (unknown origin) at 0.164 uM relative to control
[13] = target: Death-associated protein kinase 1 (Homo sapiens) (UniProt P53355); assay: Inhibition of DAPK1 (unknown origin) at 0.164 uM relative to control
[14] = target: Tyrosine-protein kinase receptor UFO (Homo sapiens) (UniProt P30530); assay: Inhibition of AXL (unknown origin) at 0.164 uM relative to control
[15] = target: Calcium/calmodulin-dependent protein kinase type 1 (Homo sapiens) (UniProt Q14012); assay: Inhibition of CaMK1a (unknown origin) at 0.45 uM relative to control
[16] = target: Serine/threonine-protein kinase pim-2 (Homo sapiens) (UniProt Q9P1W9); assay: Inhibition of PIM2 (unknown origin) at 0.45 uM relative to control
[17] = target: Epidermal growth factor receptor (Homo sapiens) (UniProt P00533); assay: Inhibition of EGFR (unknown origin) at 0.45 uM relative to control
[18] = target: Serine/threonine-protein kinase PAK 2 (Homo sapiens) (UniProt Q13177); assay: Inhibition of PAK2 (unknown origin) at 0.45 uM relative to control
[19] = target: Homeodomain-interacting protein kinase 4 (Homo sapiens) (UniProt Q8NE63); assay: Inhibition of HIPK4 (unknown origin) at 0.19 uM relative to control
[20] = target: Serine/threonine-protein kinase Nek6 (Homo sapiens) (UniProt Q9HC98); assay: Inhibition of NEK6 (unknown origin) at 0.19 uM relative to control
[21] = target: Calcium/calmodulin-dependent protein kinase type II subunit beta (Homo sapiens) (UniProt Q13554); assay: Inhibition of CAMK2 (unknown origin) at 0.19 uM relative to control
[22] = target: Glycogen synthase kinase-3 alpha (Homo sapiens) (UniProt P49840); assay: Inhibition of GSK3-alpha (unknown origin) at 0.19 uM relative to control
[23] = target: Calcium/calmodulin-dependent protein kinase type II subunit beta (Homo sapiens) (UniProt Q13554); assay: Inhibition of CaMK2-beta (unknown origin) at 0.19 uM relative to control
[24] = target: Tyrosine-protein kinase SYK (Homo sapiens) (UniProt P43405); assay: Inhibition of SYK (unknown origin) at 0.19 uM relative to control
[25] = target: MAP kinase-activated protein kinase 2 (Homo sapiens) (UniProt P49137); assay: Inhibition of MAPKAPK2 (unknown origin) at 0.19 uM relative to control
[26] = target: Ephrin type-A receptor 4 (Homo sapiens) (UniProt P54764); assay: Inhibition of EPHA4 (unknown origin) at 0.19 uM relative to control
[27] = target: Serine/threonine-protein kinase PAK 3 (Homo sapiens) (UniProt O75914); assay: Inhibition of PAK3 (unknown origin) at 0.19 uM relative to control
[28] = target: Vascular endothelial growth factor receptor 2 (Homo sapiens) (UniProt P35968); assay: Inhibition of KDR (unknown origin) at 0.19 uM relative to control
[29] = target: Ephrin type-B receptor 4 (Homo sapiens) (UniProt P54760); assay: Inhibition of EPHB4 (unknown origin) at 0.19 uM relative to control
[30] = target: Tyrosine-protein kinase Tec (Homo sapiens) (UniProt P42680); assay: Inhibition of TEC (unknown origin) at 0.19 uM relative to control
[31] = target: AMPK alpha2/beta1/gamma1 (Homo sapiens) (UniProt P54646+P54619+Q9Y478); assay: Inhibition of AMPK-alpha2/beta1/gamma1 (unknown origin) at 0.19 uM relative to control; format: protein-complex assay
[32] = target: MAP/microtubule affinity-regulating kinase 4 (Homo sapiens) (UniProt Q96L34); assay: Inhibition of MARK4 (unknown origin) at 0.19 uM relative to control
[33] = target: Tyrosine-protein kinase HCK (Homo sapiens) (UniProt P08631); assay: Inhibition of Hck (unknown origin) at 0.19 uM relative to control
[34] = target: Serine/threonine-protein kinase pim-2 (Homo sapiens) (UniProt Q9P1W9); assay: Inhibition of PIM2 (unknown origin) at 0.19 uM relative to control
[35] = system: Platelet-derived growth factor receptor alpha (Homo sapiens), P16234 [V561D]; assay: Inhibition of PDGFRA V561D mutant (unknown origin) at 0.19 uM relative to control
[36] = target: Casein kinase I isoform gamma-3 (Homo sapiens) (UniProt Q9Y6M4); assay: Inhibition of CK1-gamma3 (unknown origin) at 0.19 uM relative to control
[37] = target: SRSF protein kinase 3 (Homo sapiens) (UniProt Q9UPE1); assay: Inhibition of MSSK1 (unknown origin) at 0.19 uM relative to control
[38] = target: Activated CDC42 kinase 1 (Homo sapiens) (UniProt Q07912); assay: Inhibition of ACK (unknown origin) at 0.19 uM relative to control
[39] = system: Receptor-type tyrosine-protein kinase FLT3 (Homo sapiens), P36888 [D835Y]; assay: Inhibition of Flt3 D835Y mutant (unknown origin) at 0.19 uM relative to control

Sequence of Calcium/calmodulin-dependent protein kinase type II subunit beta (Homo sapiens) (Q13554 whole entry): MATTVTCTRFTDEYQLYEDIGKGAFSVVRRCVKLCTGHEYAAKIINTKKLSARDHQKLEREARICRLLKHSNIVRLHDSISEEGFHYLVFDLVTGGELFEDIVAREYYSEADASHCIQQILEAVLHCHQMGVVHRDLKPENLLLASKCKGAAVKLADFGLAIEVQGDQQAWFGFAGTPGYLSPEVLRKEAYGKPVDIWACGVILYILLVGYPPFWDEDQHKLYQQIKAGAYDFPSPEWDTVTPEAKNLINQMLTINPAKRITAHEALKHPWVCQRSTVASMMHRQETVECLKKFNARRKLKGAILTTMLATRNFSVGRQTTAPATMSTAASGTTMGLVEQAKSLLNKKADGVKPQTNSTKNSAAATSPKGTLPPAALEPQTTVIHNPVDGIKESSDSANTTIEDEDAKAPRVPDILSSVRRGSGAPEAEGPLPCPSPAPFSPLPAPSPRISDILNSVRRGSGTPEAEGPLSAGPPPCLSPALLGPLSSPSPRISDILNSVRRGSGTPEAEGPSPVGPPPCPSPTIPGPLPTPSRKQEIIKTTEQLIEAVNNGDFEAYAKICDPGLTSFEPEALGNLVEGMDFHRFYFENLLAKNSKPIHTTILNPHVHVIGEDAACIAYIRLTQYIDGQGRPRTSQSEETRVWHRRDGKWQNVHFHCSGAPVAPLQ
Sequence of Calcium/calmodulin-dependent protein kinase type 1 (Homo sapiens) (Q14012 whole entry, looked up): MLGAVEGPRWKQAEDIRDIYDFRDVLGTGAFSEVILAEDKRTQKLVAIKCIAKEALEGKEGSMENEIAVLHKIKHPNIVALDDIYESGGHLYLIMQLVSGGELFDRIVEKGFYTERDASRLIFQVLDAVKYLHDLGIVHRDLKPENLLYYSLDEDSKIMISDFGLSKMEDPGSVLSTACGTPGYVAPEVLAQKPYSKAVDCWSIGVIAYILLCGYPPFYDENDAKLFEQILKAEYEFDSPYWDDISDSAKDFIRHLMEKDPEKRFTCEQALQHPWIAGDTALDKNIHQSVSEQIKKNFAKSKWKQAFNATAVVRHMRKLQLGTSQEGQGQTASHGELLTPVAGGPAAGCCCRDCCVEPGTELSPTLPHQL
Sequence of Serine/threonine-protein kinase pim-2 (Homo sapiens) (Q9P1W9 whole entry, looked up): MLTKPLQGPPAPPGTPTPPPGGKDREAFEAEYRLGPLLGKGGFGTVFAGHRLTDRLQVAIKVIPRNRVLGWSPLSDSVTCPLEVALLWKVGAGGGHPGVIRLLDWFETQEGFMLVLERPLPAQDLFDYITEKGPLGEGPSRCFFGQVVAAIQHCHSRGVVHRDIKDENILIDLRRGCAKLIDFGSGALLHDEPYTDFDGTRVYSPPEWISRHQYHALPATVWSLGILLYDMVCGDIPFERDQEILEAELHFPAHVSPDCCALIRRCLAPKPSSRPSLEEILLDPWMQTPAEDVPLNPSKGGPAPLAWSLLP
Sequence of Casein kinase I isoform gamma-3 (Homo sapiens) (Q9Y6M4 whole entry, looked up, canonical isoform): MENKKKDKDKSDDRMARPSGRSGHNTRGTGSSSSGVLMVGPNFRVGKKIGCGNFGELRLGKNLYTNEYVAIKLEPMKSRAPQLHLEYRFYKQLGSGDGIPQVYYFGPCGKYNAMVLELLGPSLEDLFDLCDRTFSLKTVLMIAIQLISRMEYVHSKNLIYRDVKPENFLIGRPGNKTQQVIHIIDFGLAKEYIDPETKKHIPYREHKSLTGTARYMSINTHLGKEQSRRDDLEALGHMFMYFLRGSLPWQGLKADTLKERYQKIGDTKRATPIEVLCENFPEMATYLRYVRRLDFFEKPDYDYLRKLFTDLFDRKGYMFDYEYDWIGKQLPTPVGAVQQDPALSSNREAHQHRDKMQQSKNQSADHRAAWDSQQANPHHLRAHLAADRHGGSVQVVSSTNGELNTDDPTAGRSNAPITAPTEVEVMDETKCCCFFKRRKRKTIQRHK
Sequence of NUAK family SNF1-like kinase 1 (Homo sapiens) (O60285 whole entry): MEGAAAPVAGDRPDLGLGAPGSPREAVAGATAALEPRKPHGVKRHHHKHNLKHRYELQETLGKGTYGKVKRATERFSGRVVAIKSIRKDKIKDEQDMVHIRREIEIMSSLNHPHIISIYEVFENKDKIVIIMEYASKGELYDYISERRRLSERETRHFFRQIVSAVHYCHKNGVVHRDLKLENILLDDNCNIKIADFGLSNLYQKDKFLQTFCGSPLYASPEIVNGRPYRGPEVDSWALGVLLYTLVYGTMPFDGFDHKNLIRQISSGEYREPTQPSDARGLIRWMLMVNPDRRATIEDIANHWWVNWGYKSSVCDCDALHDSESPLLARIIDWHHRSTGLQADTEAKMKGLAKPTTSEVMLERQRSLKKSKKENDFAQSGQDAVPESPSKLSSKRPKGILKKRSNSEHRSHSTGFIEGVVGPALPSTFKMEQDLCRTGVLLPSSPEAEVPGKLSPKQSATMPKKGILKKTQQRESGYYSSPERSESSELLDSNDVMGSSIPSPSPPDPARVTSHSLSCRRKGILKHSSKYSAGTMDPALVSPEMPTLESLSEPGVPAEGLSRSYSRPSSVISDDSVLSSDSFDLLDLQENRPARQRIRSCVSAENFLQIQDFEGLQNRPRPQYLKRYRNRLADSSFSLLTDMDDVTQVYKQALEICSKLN
Sequence of Death-associated protein kinase 1 (Homo sapiens) (P53355 whole entry, looked up): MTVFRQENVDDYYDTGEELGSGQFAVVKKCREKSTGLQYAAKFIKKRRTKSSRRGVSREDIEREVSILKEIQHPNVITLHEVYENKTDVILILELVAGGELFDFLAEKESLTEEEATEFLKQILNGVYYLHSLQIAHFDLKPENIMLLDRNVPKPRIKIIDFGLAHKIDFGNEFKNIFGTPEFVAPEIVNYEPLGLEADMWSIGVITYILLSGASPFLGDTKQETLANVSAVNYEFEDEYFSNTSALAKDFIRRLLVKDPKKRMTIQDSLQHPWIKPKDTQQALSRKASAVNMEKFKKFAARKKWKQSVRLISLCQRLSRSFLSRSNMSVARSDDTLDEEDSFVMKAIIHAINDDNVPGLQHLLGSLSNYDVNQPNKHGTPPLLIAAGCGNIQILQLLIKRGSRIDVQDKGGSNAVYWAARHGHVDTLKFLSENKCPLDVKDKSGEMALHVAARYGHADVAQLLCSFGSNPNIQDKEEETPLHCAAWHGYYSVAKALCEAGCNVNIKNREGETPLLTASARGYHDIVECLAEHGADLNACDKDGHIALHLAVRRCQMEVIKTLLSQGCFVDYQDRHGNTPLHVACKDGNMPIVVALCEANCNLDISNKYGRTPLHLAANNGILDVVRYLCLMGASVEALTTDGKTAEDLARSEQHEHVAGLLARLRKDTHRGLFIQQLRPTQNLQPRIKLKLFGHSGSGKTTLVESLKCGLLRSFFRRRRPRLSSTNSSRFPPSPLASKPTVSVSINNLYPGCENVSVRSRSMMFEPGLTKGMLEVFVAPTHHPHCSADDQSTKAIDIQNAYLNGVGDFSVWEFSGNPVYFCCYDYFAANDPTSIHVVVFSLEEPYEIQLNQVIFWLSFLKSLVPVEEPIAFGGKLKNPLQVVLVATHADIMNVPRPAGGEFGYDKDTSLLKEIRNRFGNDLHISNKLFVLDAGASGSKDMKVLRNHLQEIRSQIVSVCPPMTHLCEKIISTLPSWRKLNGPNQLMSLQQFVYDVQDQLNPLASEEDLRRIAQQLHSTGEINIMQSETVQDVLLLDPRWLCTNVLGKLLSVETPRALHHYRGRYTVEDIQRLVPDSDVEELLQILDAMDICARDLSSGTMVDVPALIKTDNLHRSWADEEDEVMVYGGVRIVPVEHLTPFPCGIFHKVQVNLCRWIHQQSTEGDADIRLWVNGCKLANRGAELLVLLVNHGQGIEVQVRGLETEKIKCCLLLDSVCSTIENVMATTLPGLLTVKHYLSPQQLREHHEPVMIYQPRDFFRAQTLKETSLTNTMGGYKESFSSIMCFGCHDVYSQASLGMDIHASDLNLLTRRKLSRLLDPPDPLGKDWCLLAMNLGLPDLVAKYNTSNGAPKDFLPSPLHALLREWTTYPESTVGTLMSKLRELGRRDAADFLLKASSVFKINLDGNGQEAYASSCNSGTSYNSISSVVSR
Sequence of Tyrosine-protein kinase Tec (Homo sapiens) (P42680 whole entry): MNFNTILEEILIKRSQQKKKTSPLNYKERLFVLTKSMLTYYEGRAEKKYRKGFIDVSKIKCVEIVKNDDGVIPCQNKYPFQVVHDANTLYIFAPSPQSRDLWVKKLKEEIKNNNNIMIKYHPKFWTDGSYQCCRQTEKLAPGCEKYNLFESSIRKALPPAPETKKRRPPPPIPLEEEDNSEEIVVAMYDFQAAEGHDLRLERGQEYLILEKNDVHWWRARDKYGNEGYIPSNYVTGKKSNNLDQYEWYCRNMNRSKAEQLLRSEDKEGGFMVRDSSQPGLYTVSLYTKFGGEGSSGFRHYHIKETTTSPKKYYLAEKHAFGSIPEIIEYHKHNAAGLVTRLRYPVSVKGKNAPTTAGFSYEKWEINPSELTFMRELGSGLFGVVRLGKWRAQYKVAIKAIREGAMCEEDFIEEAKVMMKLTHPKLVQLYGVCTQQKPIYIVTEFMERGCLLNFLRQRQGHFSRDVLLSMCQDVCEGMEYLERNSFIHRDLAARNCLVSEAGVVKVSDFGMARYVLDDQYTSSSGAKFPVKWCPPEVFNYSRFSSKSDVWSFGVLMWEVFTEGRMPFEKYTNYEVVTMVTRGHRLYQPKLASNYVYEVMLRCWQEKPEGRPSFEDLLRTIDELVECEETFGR
Sequence of RAC-gamma serine/threonine-protein kinase (Homo sapiens) (Q9Y243 whole entry): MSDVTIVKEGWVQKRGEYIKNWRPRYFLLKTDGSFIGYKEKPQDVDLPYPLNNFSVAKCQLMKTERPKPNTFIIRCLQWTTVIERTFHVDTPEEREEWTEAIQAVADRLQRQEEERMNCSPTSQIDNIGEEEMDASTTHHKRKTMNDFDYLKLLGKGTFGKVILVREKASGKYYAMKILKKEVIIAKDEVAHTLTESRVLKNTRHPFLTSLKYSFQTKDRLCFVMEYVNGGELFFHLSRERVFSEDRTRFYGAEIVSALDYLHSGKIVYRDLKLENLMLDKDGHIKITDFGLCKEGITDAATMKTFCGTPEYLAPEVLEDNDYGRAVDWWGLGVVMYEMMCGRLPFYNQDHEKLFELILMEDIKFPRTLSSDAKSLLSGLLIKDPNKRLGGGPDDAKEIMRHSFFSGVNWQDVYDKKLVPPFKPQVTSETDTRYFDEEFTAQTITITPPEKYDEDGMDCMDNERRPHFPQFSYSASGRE

`COC(=O)Nc1cc(-c2c(C3CC3)n[nH]c2C)cc2[nH]ncc12` was tested, and the inhibition [1] was -2%, the inhibition [2] was 3.3% and the inhibition [3] was -1.3%. The inhibition [4] was -2.7%, the inhibition [5] was 7% and the inhibition [6] was 4%. The inhibition [7] was 0.3%, the inhibition [8] was 0.7% and the inhibition [9] was 0.7%. For the same compound, the inhibition [10] was 6.7%, the inhibition [11] was 3.3% and the inhibition [12] was 3.3%. For the same compound, the inhibition [13] was -3.7% and the inhibition [14] was 4%.
In the case of `Cc1n[nH]c(C)c1-c1ccc2c(NC(=O)c3ccc(N4CCN(C)CC4)cc3)n[nH]c2c1`, the inhibition [15] is reported as -0.7%, the inhibition [16] is reported as -1.7% and the inhibition [17] is reported as -6%. It also gave an inhibition [18] of -2.7%.
`Cc1[nH]nc(C2CC2)c1-c1ccc2c(-c3ccc(N4CCN(C)CC4)nc3)n[nH]c2c1` was tested, and the inhibition [19] was -0.7%, the inhibition [20] was -1% and the inhibition [21] was 1%. The inhibition [22] was 1.7%, the inhibition [23] was 1.7% and the inhibition [24] was 4.7%. It also gave an inhibition [25] of 1.7%, an inhibition [26] of 2% and an inhibition [27] of -0.7%. It also gave an inhibition [28] of 51%, an inhibition [29] of 0.3% and an inhibition [30] of 2%. The inhibition [31] was 13.7%, the inhibition [32] was 0.7% and the inhibition [33] was 6.7%. The inhibition [34] was 2%, the inhibition [35] was 63.3% and the inhibition [36] was 1%. For the same compound, the inhibition [37] was -9.3%, the inhibition [38] was 3% and the inhibition [39] was 93.7%.
